Data from patent publication US20250145665A1, “MACROCYCLIC PEPTIDES USEFUL AS MODULATORS OF TNF ALPHA” (Bristol-Myers Squibb Company, priority 2023, published 2025).
pIC50: −log10 of the molar value. Like-named read-outs stand apart in the source and are kept apart here. One block for each molecule: values may come before it. Starred links: 1 amine or outer side, 2 acyl side, 3 side chain; linkers in the order of their positions; H or OH if unused. Positions of bridges follow the written chain, without caps; N, C: chain ends. Non-standard residues stand in square brackets, D forms with d. Residues, ends and D or L forms follow the SMILES beside them. *: point of attachment. Bip(4'-NHCO-C6H4-3-CH2COOH) = N[C@@H](Cc1ccc(-c2ccc(NC(=O)c3cccc(CC(=O)O)c3)cc2)cc1)C(=O)O; Bip(4'-NHCO-C6H4-4-CH2COOH) = N[C@@H](Cc1ccc(-c2ccc(NC(=O)c3ccc(CC(=O)O)cc3)cc2)cc1)C(=O)O; dArg(Nω-CH2C6H4-3-CH2Gua) = N=C(N)NCc1cccc(CNC(=N)NCCC[C@@H](N)C(=O)O)c1; Bip(4'-NH) = O=C([C@H](Cc1ccc(-c2ccc(N[*:3])cc2)cc1)N[*:1])[*:2]; dArg(ω-(3-HO-benzyl)) = N=C(NCCC[C@@H](N)C(=O)O)NCc1cccc(O)c1; Indazole3carbonyl(1-CH2COOH) = O=C(O)Cn1nc(C(=O)*)c2ccccc21; Bip(4'-COOH) = N[C@@H](Cc1ccc(-c2ccc(C(=O)O)cc2)cc1)C(=O)O; Indole3carbonyl(1-CH2COOH) = O=C(O)Cn1cc(C(=O)*)c2ccccc21; Ala(imidazol-2-yl) = N[C@@H](Cc1ncc[nH]1)C(=O)O; Benzoyl(3-OCH2COOH) = O=C(O)COc1cccc(C(=O)*)c1; 2Pal = N[C@@H](Cc1ccccn1)C(=O)O; Cha = N[C@@H](CC1CCCCC1)C(=O)O; Sar = CNCC(=O)O

Target: TNFα (Homo sapiens, UniProt P01375)
Sequence (P01375 77-233 limits assumed): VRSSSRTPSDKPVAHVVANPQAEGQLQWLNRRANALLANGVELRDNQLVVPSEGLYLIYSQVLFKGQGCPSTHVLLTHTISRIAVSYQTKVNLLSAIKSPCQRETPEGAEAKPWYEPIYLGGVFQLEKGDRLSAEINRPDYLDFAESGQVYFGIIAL
Assay: TNF-Induced HEK-Blue Assay
Assay type: cell-based
[1] = HEK-Blue-CD40L cells, NF-kB-driven secreted alkaline phosphatase reporter, TNFα 0.5 ng/ml, 18 h, read-out: TNF induced HEK-Blue assay IC50 value

SMILES: CC(C)C[C@@H]1NC(=O)[C@H](Cc2ncc[nH]2)NC(=O)[C@H](C(C)C)NC(=O)[C@@H]2CCCN2C(=O)[C@H](C(C)C)NC(=O)[C@@H](CCCNC(=N)NCc2cccc(O)c2)NC(=O)[C@H](CC(=O)O)NC(=O)[C@H](Cc2ccccn2)NC(=O)CN(C)C(=O)[C@H](Cc2ccc(-c3ccc(NC(=O)c4cn(CC(=O)O)c5ccccc45)cc3)cc2)NC(=O)[C@H](Cc2ccc(-c3ccc(C(=O)O)cc3)cc2)NC(=O)[C@H](CC2CCCCC2)NC(=O)CSC[C@@H](C(=O)NCC(N)=O)NC1=O [Example 552] ({CH2CO}-[Cha][Bip(4'-COOH)][Bip(4'-NH)](Indole3carbonyl(1-CH2COOH))[Sar][2Pal]D[dArg(ω-(3-HO-benzyl))]VPV[Ala(imidazol-2-yl)]LCG-NH2; thioether N-13)
pIC50: 6.70 to 7.30

SMILES: CC(C)C[C@@H]1NC(=O)[C@H](Cc2ncc[nH]2)NC(=O)[C@H](C(C)C)NC(=O)[C@@H]2CCCN2C(=O)[C@H](C(C)C)NC(=O)[C@@H](CCCNC(=N)NCc2cccc(O)c2)NC(=O)[C@H](CC(=O)O)NC(=O)[C@H](Cc2ccccn2)NC(=O)CN(C)C(=O)[C@H](Cc2ccc(-c3ccc(NC(=O)c4cccc(CC(=O)O)c4)cc3)cc2)NC(=O)[C@H](Cc2ccc(-c3ccc(C(=O)O)cc3)cc2)NC(=O)[C@H](CC2CCCCC2)NC(=O)CSC[C@@H](C(=O)NCC(N)=O)NC1=O [Example 553] ({CH2CO}-[Cha][Bip(4'-COOH)][Bip(4'-NHCO-C6H4-3-CH2COOH)][Sar][2Pal]D[dArg(ω-(3-HO-benzyl))]VPV[Ala(imidazol-2-yl)]LCG-NH2; thioether N-13)
pIC50 [1]: 6.70 to 7.30

SMILES: CC(C)C[C@@H]1NC(=O)[C@H](Cc2ncc[nH]2)NC(=O)[C@H](C(C)C)NC(=O)[C@@H]2CCCN2C(=O)[C@H](C(C)C)NC(=O)[C@@H](CCCNC(=N)NCc2cccc(O)c2)NC(=O)[C@H](CC(=O)O)NC(=O)[C@H](Cc2ccccn2)NC(=O)CN(C)C(=O)[C@H](Cc2ccc(-c3ccc(NC(=O)c4ccc(CC(=O)O)cc4)cc3)cc2)NC(=O)[C@H](Cc2ccc(-c3ccc(C(=O)O)cc3)cc2)NC(=O)[C@H](CC2CCCCC2)NC(=O)CSC[C@@H](C(=O)NCC(N)=O)NC1=O [Example 554] ({CH2CO}-[Cha][Bip(4'-COOH)][Bip(4'-NHCO-C6H4-4-CH2COOH)][Sar][2Pal]D[dArg(ω-(3-HO-benzyl))]VPV[Ala(imidazol-2-yl)]LCG-NH2; thioether N-13)
pIC50 [1]: > 7.30

SMILES: CC(C)C[C@@H]1NC(=O)[C@H](Cc2ncc[nH]2)NC(=O)[C@H](C(C)C)NC(=O)[C@@H]2CCCN2C(=O)[C@H](C(C)C)NC(=O)[C@@H](CCCNC(=N)NCc2cccc(CNC(=N)N)c2)NC(=O)[C@H](CC(=O)O)NC(=O)[C@H](Cc2ccccn2)NC(=O)CN(C)C(=O)[C@H](Cc2ccc(-c3ccc(NC(=O)c4nn(CC(=O)O)c5ccccc45)cc3)cc2)NC(=O)[C@H](Cc2ccc(-c3ccc(C(=O)O)cc3)cc2)NC(=O)[C@H](CC2CCCCC2)NC(=O)CSC[C@@H](C(=O)NCC(N)=O)NC1=O [Example 556] ({CH2CO}-[Cha][Bip(4'-COOH)][Bip(4'-NH)](Indazole3carbonyl(1-CH2COOH))[Sar][2Pal]D[dArg(Nω-CH2C6H4-3-CH2Gua)]VPV[Ala(imidazol-2-yl)]LCG-NH2; thioether N-13)
pIC50: > 7.30

SMILES: CC(C)C[C@@H]1NC(=O)[C@H](Cc2ncc[nH]2)NC(=O)[C@H](C(C)C)NC(=O)[C@@H]2CCCN2C(=O)[C@H](C(C)C)NC(=O)[C@@H](CCCNC(=N)NCc2cccc(CNC(=N)N)c2)NC(=O)[C@H](CC(=O)O)NC(=O)[C@H](Cc2ccccn2)NC(=O)CN(C)C(=O)[C@H](Cc2ccc(-c3ccc(NC(=O)c4cn(CC(=O)O)c5ccccc45)cc3)cc2)NC(=O)[C@H](Cc2ccc(-c3ccc(C(=O)O)cc3)cc2)NC(=O)[C@H](CC2CCCCC2)NC(=O)CSC[C@@H](C(=O)NCC(N)=O)NC1=O [Example 557] ({CH2CO}-[Cha][Bip(4'-COOH)][Bip(4'-NH)](Indole3carbonyl(1-CH2COOH))[Sar][2Pal]D[dArg(Nω-CH2C6H4-3-CH2Gua)]VPV[Ala(imidazol-2-yl)]LCG-NH2; thioether N-13)
pIC50: > 7.30

The remaining lines, values ahead:

pIC50 [1]: > 7.30
SMILES: CC(C)C[C@@H]1NC(=O)[C@H](Cc2ncc[nH]2)NC(=O)[C@H](C(C)C)NC(=O)[C@@H]2CCCN2C(=O)[C@H](C(C)C)NC(=O)[C@@H](CCCNC(=N)NCc2cccc(O)c2)NC(=O)[C@H](CC(=O)O)NC(=O)[C@H](Cc2ccccn2)NC(=O)CN(C)C(=O)[C@H](Cc2ccc(-c3ccc(NC(=O)c4cccc(OCC(=O)O)c4)cc3)cc2)NC(=O)[C@H](Cc2ccc(-c3ccc(C(=O)O)cc3)cc2)NC(=O)[C@H](CC2CCCCC2)NC(=O)CSC[C@@H](C(=O)NCC(N)=O)NC1=O [Example 555] ({CH2CO}-[Cha][Bip(4'-COOH)][Bip(4'-NH)](Benzoyl(3-OCH2COOH))[Sar][2Pal]D[dArg(ω-(3-HO-benzyl))]VPV[Ala(imidazol-2-yl)]LCG-NH2; thioether N-13)

pIC50 [1]: > 7.30
SMILES: CC(C)C[C@@H]1NC(=O)[C@H](Cc2ncc[nH]2)NC(=O)[C@H](C(C)C)NC(=O)[C@@H]2CCCN2C(=O)[C@H](C(C)C)NC(=O)[C@@H](CCCNC(=N)NCc2cccc(CNC(=N)N)c2)NC(=O)[C@H](CC(=O)O)NC(=O)[C@H](Cc2ccccn2)NC(=O)CN(C)C(=O)[C@H](Cc2ccc(-c3ccc(NC(=O)c4cccc(CC(=O)O)c4)cc3)cc2)NC(=O)[C@H](Cc2ccc(-c3ccc(C(=O)O)cc3)cc2)NC(=O)[C@H](CC2CCCCC2)NC(=O)CSC[C@@H](C(=O)NCC(N)=O)NC1=O [Example 558] ({CH2CO}-[Cha][Bip(4'-COOH)][Bip(4'-NHCO-C6H4-3-CH2COOH)][Sar][2Pal]D[dArg(Nω-CH2C6H4-3-CH2Gua)]VPV[Ala(imidazol-2-yl)]LCG-NH2; thioether N-13)

pIC50 [1]: > 7.30
SMILES: CC(C)C[C@@H]1NC(=O)[C@H](Cc2ncc[nH]2)NC(=O)[C@H](C(C)C)NC(=O)[C@@H]2CCCN2C(=O)[C@H](C(C)C)NC(=O)[C@@H](CCCNC(=N)NCc2cccc(CNC(=N)N)c2)NC(=O)[C@H](CC(=O)O)NC(=O)[C@H](Cc2ccccn2)NC(=O)CN(C)C(=O)[C@H](Cc2ccc(-c3ccc(NC(=O)c4ccc(CC(=O)O)cc4)cc3)cc2)NC(=O)[C@H](Cc2ccc(-c3ccc(C(=O)O)cc3)cc2)NC(=O)[C@H](CC2CCCCC2)NC(=O)CSC[C@@H](C(=O)NCC(N)=O)NC1=O [Example 559] ({CH2CO}-[Cha][Bip(4'-COOH)][Bip(4'-NHCO-C6H4-4-CH2COOH)][Sar][2Pal]D[dArg(Nω-CH2C6H4-3-CH2Gua)]VPV[Ala(imidazol-2-yl)]LCG-NH2; thioether N-13)

pIC50 [1]: > 7.30
SMILES: CC(C)C[C@@H]1NC(=O)[C@H](Cc2ncc[nH]2)NC(=O)[C@H](C(C)C)NC(=O)[C@@H]2CCCN2C(=O)[C@H](C(C)C)NC(=O)[C@@H](CCCNC(=N)NCc2cccc(CNC(=N)N)c2)NC(=O)[C@H](CC(=O)O)NC(=O)[C@H](Cc2ccccn2)NC(=O)CN(C)C(=O)[C@H](Cc2ccc(-c3ccc(NC(=O)c4cccc(OCC(=O)O)c4)cc3)cc2)NC(=O)[C@H](Cc2ccc(-c3ccc(C(=O)O)cc3)cc2)NC(=O)[C@H](CC2CCCCC2)NC(=O)CSC[C@@H](C(=O)NCC(N)=O)NC1=O [Example 560] ({CH2CO}-[Cha][Bip(4'-COOH)][Bip(4'-NH)](Benzoyl(3-OCH2COOH))[Sar][2Pal]D[dArg(Nω-CH2C6H4-3-CH2Gua)]VPV[Ala(imidazol-2-yl)]LCG-NH2; thioether N-13)
